The nature of this data set: gradient 5% acetonitrile 3 min, to 50% in 2 min, to 85% in 15 min, held 3 min, 100 µL/min. To be noted: column: Zorbax Extend-C18 2.1 x 50 mm; eluents: water / acetonitrile, 0.1% formic acid. The method, boiled down: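 Retention times come from adduct peaks that were picked computationally and then checked by hand. The standards, pure and pooled in mixtures of ~100 molecules, were run on a Zorbax Extend-C18 column (2.1 × 50 mm, 1.8 μm) at 100 μL/min with water and acetonitrile, each with 0.1% formic acid. Detection was by quadrupole time-of-flight mass spectrometry in positive and negative ionization mode, with a dead volume of 40 μL and a dwell volume of 900 μL.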
For the molecule `CCc1cc(C(=O)Nc2cccc(C)c2)nc2ccnn12`, the RP-LC retention time was 995 s.
Under `Cc1cc(NC(=O)COc2coc(CN3CCN(C(=O)c4ccco4)CC3)cc2=O)no1` stands 549 s; under `O=C(NCCN1CCOCC1)C1CCc2sc(C(=O)N3CCOCC3)cc2C1` (stereo not drawn), 561 s.
Take `CCN1CCCn2cc(S(=O)(=O)Nc3ccccc3F)cc2C1=O`: the RP-LC retention time amounted to 687 s.
`Cc1ccc(C)c(-c2cc3c(=O)n(Cc4nc(-c5ccccc5)no4)ncn3n2)c1` showed an RP-LC retention time of 1200 s.
For `CC1CCN(CCCNS(=O)(=O)c2ccccc2-c2nc(-c3ccccc3)no2)CC1`, the RP-LC retention time turned out to be 733 s.
In turn, `O=C(CC(=O)Nc1ccc2nc3n(c(=O)c2c1)CCCCC3)Nc1ccc(F)cc1` yielded an RP-LC retention time of 705 s.
For `COc1cccc(-c2cc(C(=O)N3CCC(NC(=O)c4cccc(Cl)c4)CC3)[nH]n2)c1`, the RP-LC retention time came out at 740 s.
Next, `Cc1cc(=O)n(CC(=O)Nc2cc(C)on2)c(N2CCc3ccccc3C2)n1`: 699 s; `O=C(Cc1ccccc1)Nc1c(-c2ccccc2)nc2ccccn12`: 574 s; `O=C(Cn1nc2n(c1=O)CCCC2)Nc1cccc(Cl)c1`: 662 s.
As for `COc1ccccc1C(=O)N1CCc2c(c(-c3nnc(-c4ccccc4Cl)o3)nn2C)C1`, the RP-LC retention time worked out at 806 s.
`COc1ccccc1-c1noc(-c2nnn(Cc3nc(-c4cccc(C)c4)oc3C)c2C)n1` displayed an RP-LC retention time of 1160 s.
Take `CCC1Oc2ccc(S(=O)(=O)N3CCC(C(=O)NCc4ccccc4C)CC3)cc2NC1=O` (stereo not drawn): the RP-LC retention time was determined as 872 s.
`Cc1cccc(C)c1NC(=O)C1CCN(S(=O)(=O)c2ccc3c(c2)NC(=O)CO3)CC1` gave an RP-LC retention time of 813 s.
Next, `CCCCCC(=O)Nc1nc(-c2ccc(C)cc2C)cs1`: 1190 s; `CC(C)C(=O)NC(Cc1ccccc1)c1nnc(N2CCSCC2)o1` (stereo not drawn): 738 s; `CCOc1ccc(-n2ccn3c(CCCC(=O)N4CCN(c5ccccn5)CC4)nnc3c2=O)cc1`: 606 s.
`CCC(C(=O)NCCCN1CCN(C)CC1)n1c2ccccc2c2cnn(C)c(=O)c21` (stereo not drawn) gave an RP-LC retention time of 560 s.
The molecule `CN1C2CCC1CC(OC(c1ccccc1)c1ccccc1N)C2` (stereo not drawn) returned an RP-LC retention time of 752 s.
Take `COc1cccc(CNC(=O)C2(c3ccc(NS(C)(=O)=O)cc3)CCCCC2)c1`: the RP-LC retention time amounted to 867 s.
Next, `Cc1cc(C2CCCN2C(=O)Cc2ccc(Cl)cc2)no1` (stereo not drawn): 824 s; `Cc1cc(C(F)(F)F)nn1CC(=O)N1CCC(c2noc(-c3ccccn3)n2)C1` (stereo not drawn): 769 s; `O=C(Nc1c(-c2ccc(F)cc2)nc2ccccn12)c1ccccc1`: 638 s.
The molecule `Cc1ccc2[nH]cc(CCNC(=O)Nc3ccc(Cl)c(Cl)c3)c2c1` registered an RP-LC retention time of 1050 s.
Turning to `CCCC(NC(=O)c1ccccc1)C(=O)Nc1nc2ccccc2[nH]1` (stereo not drawn), the RP-LC retention time came to 688 s.
Consider `CCOC(=O)c1sc(NCCc2c[nH]c3ccc(OC)cc23)nc1-c1ccccc1`, for which the RP-LC retention time worked out at 1040 s.
In turn, `CCOC(=O)C1=C(CN(C)Cc2ccccc2)NC(=O)NC1c1ccc(Cl)cc1` (stereo not drawn) returned an RP-LC retention time of 698 s.
`CC(C)NC(=O)C1CCN(c2nc3ccc(-c4cccs4)nc3s2)CC1` displayed an RP-LC retention time of 879 s.
Under `CCn1cnc2ccc(-c3noc(Cc4ccc(Cl)cc4)n3)cc21` stands 774 s.
In turn, `Cc1ccccc1-c1csc(Cc2nc(-c3ccc(Cl)cc3)no2)n1` came in with an RP-LC retention time of 1330 s.
Next, `CCc1nnc([C@@H]2CC(F)(F)CN2C(=O)c2cc(C)no2)o1`: 686 s; `O=S(=O)(NCc1cccnc1-c1ccc(F)cc1)c1cccc(Br)c1`: 800 s.
`COc1ccc(C[C@H](C)NC[C@@H](O)c2ccc(O)c(NC=O)c2)cc1` returned an RP-LC retention time of 663 s.
Molecule `COCCC1CCN(C(=O)c2cc(-c3ccccc3)n[nH]2)CC1` had an RP-LC retention time of 758 s.
`CCS(=O)(=O)c1ccc2c(c1)N(Cc1nc(-c3ccc(Br)cc3)no1)C(=O)CO2`: the RP-LC retention time was 988 s.
`CCCN1C(=O)C(CC(=O)NC2CCCC2)Sc2ncccc21` (stereo not drawn) displayed an RP-LC retention time of 741 s.
Under `COc1ccc(CN2CCC3(CC2)CC(C)(O)CCO3)c(OC)c1` (stereo not drawn) stands 607 s.
In turn, `COc1ccccc1CNC(=O)c1nnc(-c2ccc(S(=O)(=O)N3CCC(C)CC3)cc2)o1` came in with an RP-LC retention time of 1020 s.
On to `CC(=O)N(Cc1nn(C)c2c1CN(S(=O)(=O)c1ccc(F)cc1F)CC2)c1ccccc1`, for which the RP-LC retention time was 808 s.
The molecule `CCCCN1C(=O)C(C)(C(=O)N2CCN(c3cccc(C)c3C)CC2)Oc2cccnc21` (stereo not drawn) displayed an RP-LC retention time of 1380 s.
On to `CCOc1ccc(-n2nnc(C(=O)O)c2COC)cc1`, for which the RP-LC retention time amounted to 734 s.
Molecule `CCc1nc2ccccc2c(=O)n1Cc1noc(-c2ccc(OC)c(OC)c2)n1` yielded an RP-LC retention time of 894 s.
In turn, `CCOc1cccc(CNC(=O)C2CCc3nc(N4CCOCC4)ncc3C2)c1` (stereo not drawn) registered an RP-LC retention time of 743 s.
`CCN1c2cc(Cl)ccc2C(=O)NC12CCN(C(=O)Nc1ccc(OC)cc1C)CC2` yielded an RP-LC retention time of 841 s.
Molecule `Cc1ccc(CNC(=O)C2CCCN(c3nc4c(s3)c(C)nn4-c3ccc(Cl)cc3)C2)cc1` (stereo not drawn) displayed an RP-LC retention time of 1290 s.
Next, `Cc1nnc(-c2cc(C)n(CC(=O)Nc3ccc(Br)cc3C)c2C)o1`: 847 s.
Take `Cc1oc(C2CCN(S(=O)(=O)Cc3ccccc3)CC2)nc1C(=O)N1CCOCC1`: the RP-LC retention time was 759 s.
Next, `O=C(NCC1CCCO1)c1ccc([N+](=O)[O-])cc1Cl` (stereo not drawn): 664 s; `CCn1cnc2cc(-c3noc(C4CC(=O)N(c5ccc(C)cc5)C4)n3)ccc21` (stereo not drawn): 700 s.
In the case of `CC[C@H](C)C(=O)O[C@H]1C[C@H](O)C=C2C=C[C@H](C)[C@H](CC[C@@H]3C[C@@H](O)CC(=O)O3)[C@H]21`, the RP-LC retention time is 891 s.
`COc1ccc(C2CC(=O)N(c3ccc4c(c3)OCCO4)C(=O)C2)cc1OC` yielded an RP-LC retention time of 789 s.
In turn, `COc1ccc(N2CCN(c3cc(SCC(=O)Nc4ccc(Cl)cc4F)ncn3)CC2)cc1` returned an RP-LC retention time of 1090 s.
For `CCCN1CCN(c2cc(C(=O)O)c3cc(NS(=O)(=O)c4ccc(C)cc4C)ccc3n2)CC1`, the RP-LC retention time is 937 s.
`CCOCCCNC(=O)Nc1ccc2nc(N3CCOCC3)cc(C)c2c1` showed an RP-LC retention time of 596 s.
Under `O=c1c(=O)n(-c2ccccc2)ccn1Cc1nc(-c2cccc(C(F)(F)F)c2)no1` stands 902 s; under `CNC(=O)c1nc(-c2ccc(C)cc2)n2c1CCCCC2`, 702 s; under `Cc1ccc(NS(=O)(=O)c2cc3n(c2)CCN(C(C)C)C3=O)cc1`, 777 s.
Next, `Cc1ccccc1Nc1c(-c2cccc(O)c2)nc2ccc(Br)cn12`: 727 s; `Cc1ccsc1CCNC(=O)C1CCN(S(=O)(=O)c2ccc3c(c2)CCCC(=O)N3)CC1`: 760 s.
As to `CCN1C(=O)NC(c2ccccc2C(F)(F)F)C2=C1CN(CCC(=O)NCC(C)C)C2=O` (stereo not drawn), the RP-LC retention time worked out at 661 s.
The molecule `Cc1ccc(C2=NC3(CCN(C(=O)c4ccc(C(C)(C)C)cc4)CC3)ON2)cc1` had an RP-LC retention time of 975 s.
Next, `CC(NC(=O)Cn1cc(C(=O)C(=O)N2CCCC2)c2ccccc21)c1ccc2c(c1)OCCCO2` (stereo not drawn): 815 s.
For `COc1ccc(CCNC(=O)CN2C(=O)NC(c3ccc(Cl)cc3)C3=C2COC3=O)cc1OC` (stereo not drawn), the RP-LC retention time was 750 s.
Regarding `COC(=O)C1=CN(c2ccc(OC)c(OC)c2)c2ccc(F)cc2S1(=O)=O`, the RP-LC retention time amounted to 788 s.
In the case of `CCCc1noc(-c2ccc(-n3ncc(C(=O)N4CCOCC4)c3C)nc2)n1`, the RP-LC retention time amounted to 833 s.
As for `CCCCCn1c(=O)c2ccccc2n(Cc2nc(-c3cccc(Cl)c3)no2)c1=O`, the RP-LC retention time is 1100 s.
Under `CCOc1cccc(-c2noc(Cn3nc(-c4ccc(F)cc4)ccc3=O)n2)c1` stands 1060 s; under `CC(=O)N1CCN(c2nc3c(s2)CC(C(=O)NCc2ccc(F)cc2F)CC3)CC1` (stereo not drawn), 544 s.
As for `c1ccc(-n2nnc(-c3noc(-c4ccccn4)n3)c2-c2ccncc2)cc1`, the RP-LC retention time was 718 s.
`COc1ccc(C(CNC(=O)c2cc(=O)c3ccccc3o2)N(C)C)cc1` (stereo not drawn): the RP-LC retention time worked out at 607 s.
`O=C(Cn1ncc2c(N3CCN(c4ccccn4)CC3)ncnc21)Nc1cc(F)cc(F)c1` yielded an RP-LC retention time of 634 s.
With `CC(C)(C)C(=O)N1CCC(C(=O)Nc2ccc(S(=O)(=O)N3CCCC3)cc2)CC1`, the RP-LC retention time came to 792 s.
Under `O=C(Cn1ccc2sccc2c1=O)Nc1cccc(Br)c1` stands 793 s; under `CCOCCCNS(=O)(=O)c1cc(-c2nc(C)c(C)s2)sc1C`, 961 s.
Regarding `CCn1c(=O)n(CC(=O)N2CCCC2)c(=O)c2cnc(-c3ccc(Cl)cc3)nc21`, the RP-LC retention time stood at 1010 s.
For the molecule `Oc1ccccc1Nc1ccccn1`, the RP-LC retention time came to 597 s.
`COc1ccc(OC)c(-c2cn3ccn(-c4ccc(OC)c(Cl)c4)c(=O)c3n2)c1` showed an RP-LC retention time of 885 s.

(Values after the METLIN SMRT retention time set (Domingo-Almenara et al. 2019).)
